Test results taken from PMC10354055, “An optimized Nurr1 agonist provides disease-modifying effects in Parkinson’s disease models” (Nature Communications, 2023).
Where “and” joins values, the source holds several entries; their conditions need not be identical. Equal values may be shown once.

How the values were obtained:
HeLa cells = assay: Autophagic flux, Western blot LC3B and p62, HeLa cells; type: cell-based; settings: for autophagic flux (in words): HeLa; for Relative LC3B-II experession (normalized to β-actin): Supplementary Figure S7f; for Relative p62 experession (normalized to β-actin): Supplementary Figure S7g; for Relative LC3B-II expression (normalized to β-actin): Supplementary Figure S7i; for Relative p62 expression (normalized to β-actin): Supplementary Figure S7j
Description: Experiments were confirmed by duplicate measurements of the same sample. Quantification of immunoreactive bands was performed using ImageJ software (NIH, Bethesda, MD, USA) and expressed as a relative ratio against β-actin.
The band intensities were quantified using ImageJ and normalized against β-actin.

MPTP-induced male mice = assay: Pole test, MPTP-induced PD model mice; type: in vivo, mouse; settings: for Time to traverse: Figure 4c, MPTP-induced mice, individual animal values
Description: MPTP (Sigma-Aldrich) was intraperitoneally (i.p.) injected (30 mg/kg) for 5 days (Day 1-5). […] To test dyskinetic involuntary behavior, an L-DOPA injected group was included, which received 50 mg/kg of L-DOPA and 15 mg/kg of benserazide (Sigma-Aldrich) (i.p.) for 16 days (Day 1–16). All compounds were administered 6 h post-MPTP injection to avoid any effect of compounds on the MPTP metabolism in the brain. Motor and non-motor related behavior tests were performed on the following days as described in Fig. 4a in an assessor- and observer-blinded fashion. Pre-training and baseline setup for motor-related behaviors were performed 3 days prior to the injections. Mice were sacrificed and subjected to immunohistochemistry. Mice were housed at the Animal Care Facilities of McLean Hospital under a 12-h light/12-h dark cycle, ambient temperature and humidity. Animals were handled in accordance with McLean Hospital’s Institutional Animal Care and Use Committee (Protocol #: 2015N000002) and followed National Institutes of Health guidelines.
Mice were trained to descend a vertical metal rod wrapped with rough tape (80 cm high, 12 mm diameter) once per day for 2 days, and then the baseline was measured before the pole test (3 days before the MPTP injection or the first pole test at week 2). Mice were placed head-upward on the pole and total descent time was recorded.

Nurr1 mRNA = Nurr1 mRNA level, qRT-PCR, MN9D cells; type: cell-based, mouse; settings: for Nurr1 mRNA levels (in words): MPP+ or αSyn overexpression; for Relative Nurr1 mRNA expression (fold of Cont.): Fig. S4f; for Relative Nurr1 mRNA expression (fold of +GFP Basal): Fig. S4h
Description: Total RNA was extracted using the GeneJET RNA Purification Kit (Thermo Fisher Scientific) and 100 ng of RNA was subjected to cDNA synthesis using Invitrogen Superscript cDNA Synthesis Kit (Invitrogen) according to the manufacturer’s protocol. qRT-PCR was performed using a CFX Connect Real-Time System (Bio-Rad) in a 20 μl volume mixture containing 2X SsoAdvanced Universal SYBR Green Supermix (Bio-Rad), 100 ng/μl of forward and reverse primers, and 1 μl of cDNA sample. Gene expression levels were quantified by the 2^∆∆CT method (Ct of target gene—Ct of glyceraldehyde-3-phosphate dehydrogenase (GAPDH). The following primers were used for qRT-PCR: TH forward: 5′-[…]-3′, reverse: 5′-[…]-3′; DAT forward: 5′-[…]-3′, reverse: 5′-[…]-3′; AADC forward: 5′-[…]-3′, reverse: 5′-[…]-3′; VMAT2 forward: 5′-[…]-3′, reverse: 5′-[…]-3′; c-Ret forward: 5′-[…]-3′, reverse: 5′-[…]-3′; TNFα forward: 5′-[…]-3′; reverse: 5′-[…]-3′; GAPDH, forward 5′-[…]-3′, reverse 5′-[…]-3′.
Lenti-GFP, -αSyn^WT, and -αSyn^A53T viruses were generated separately by co-transfecting each shuttle plasmid with lentivirus packaging plasmids into HEK293T cells using lipofectamine 2000 (Invitrogen). Briefly, 2 μg each FUW inducible shuttle plasmid, 2 μg FUW-rtTA, 2 μg psPax2 and 1.5 μg MD2.G were mixed and transfected into HEK293T cells. After 48 h, viral supernatants were collected and centrifuged at 1000g for 10 min, and subsequently filtered through a 0.45 μm filter. Lentiviruses were transduced into MN9D cells with 8 μg/ml of polybrene and the viral supernatant was removed and replaced with fresh medium a day after transduction.

Compound: CCN(CC)CCCC(C)Nc1ccnc2cc(Cl)ccc12 (stereo not drawn) [CQ, chloroquine]
- autophagic flux (in words) (HeLa cells; LC3B-II and p62): failed to terminate
- Time to traverse (MPTP-induced male mice): 6.3 s and 5.45 s and 6.58 s and 7.09 s and 8.95 s and 7.99 s and 7.69 s and 9.73 s and 9.95 s
- Nurr1 mRNA levels (in words) (Nurr1 mRNA): did not alter

Compound: CCN1CCN(c2cc(N3CCN(CC)CC3)nc(NCCNc3ccnc4cc(Cl)ccc34)n2)CC1 [4A7C-301, N^1-(4,6-bis(4-ethylpiperazin-1-yl)pyrimidin-2-yl)-N^2-(7-chloroquinolin-4-yl)ethane-1,2-diamine]
- autophagic flux (in words) (HeLa cells; 10-times higher concentrations than 1 µM): did not inhibit autophagy
- autophagic flux (in words) (HeLa cells; LC3B-II and p62): completed
- Relative LC3B-II experession (normalized to β-actin) (HeLa cells; time 0h): 0.384 and 0.423 and 0.339
- Relative LC3B-II experession (normalized to β-actin) (HeLa cells; time 0.5h): 0.455 and 0.539 and 0.396
- Relative LC3B-II experession (normalized to β-actin) (HeLa cells; time 1h): 0.533 and 0.561 and 0.521
- Relative LC3B-II experession (normalized to β-actin) (HeLa cells; time 2h): 0.526 and 0.509 and 0.466
- Relative LC3B-II experession (normalized to β-actin) (HeLa cells; time 4h): 0.415 and 0.449 and 0.331
- Relative p62 experession (normalized to β-actin) (HeLa cells; time 0h): 0.809 and 0.904 and 0.909
- Relative p62 experession (normalized to β-actin) (HeLa cells; time 0.5h): 0.889 and 0.886 and 0.829
- Relative p62 experession (normalized to β-actin) (HeLa cells; time 1h): 0.800 and 0.736 and 0.720
- Relative p62 experession (normalized to β-actin) (HeLa cells; time 2h): 0.670 and 0.672 and 0.687
- Relative p62 experession (normalized to β-actin) (HeLa cells; time 4h): 0.552 and 0.570
- Relative LC3B-II expression (normalized to β-actin) (HeLa cells; Conc. 1 µM): 0.5044 and 0.5121 and 0.5349
- Relative LC3B-II expression (normalized to β-actin) (HeLa cells; Conc. 10 µM): 0.4913 and 0.4289 and 0.4955
- Relative p62 expression (normalized to β-actin) (HeLa cells; Conc. 1 µM): 0.2532 and 0.2036 and 0.1875
- Relative p62 expression (normalized to β-actin) (HeLa cells; Conc. 10 µM): 0.2002 and 0.2111 and 0.1727
- motor function, pole test (in words) (MPTP-induced male mice; CQ 40, 4A7C-301 5, L-DOPA 50 mg/kg/day, i.p., 16 days): significantly rescued
- Time to traverse (MPTP-induced male mice): 9.46 s and 8.08 s and 8.64 s and 7.97 s and 6.34 s and 6.11 s and 6.58 s and 5.5 s and 7.12 s
- Relative Nurr1 mRNA expression (fold of Cont.) (Nurr1 mRNA; w/ MPP+): 0.4287 fold of Cont. and 0.414 fold of Cont. and 0.4438 fold of Cont.
- Relative Nurr1 mRNA expression (fold of Cont.) (Nurr1 mRNA; w/o MPP+): 1.004 fold of Cont. and 0.9452 fold of Cont. and 0.974 fold of Cont.
- Relative Nurr1 mRNA expression (fold of +GFP Basal) (Nurr1 mRNA; + GFP): 1.067 fold of +GFP Basal and 0.9407 fold of +GFP Basal and 1.002 fold of +GFP Basal
- Relative Nurr1 mRNA expression (fold of +GFP Basal) (Nurr1 mRNA; + αSynA53T): 0.5837 fold of +GFP Basal and 0.5113 fold of +GFP Basal and 0.5463 fold of +GFP Basal
- Relative Nurr1 mRNA expression (fold of +GFP Basal) (Nurr1 mRNA; + αSynWT): 0.7154 fold of +GFP Basal and 0.8045 fold of +GFP Basal and 0.7587 fold of +GFP Basal
- Nurr1 mRNA levels (in words) (Nurr1 mRNA): did not alter
